Assay results as given in ChEMBL document CHEMBL4619758, “Discovery of 3-({5-Chloro-1-[3-(methylsulfonyl)propyl]-1H-indol-2-yl}methyl)-1-(2,2,2-trifluoroethyl)-1,3-dihydro-2H-imidazo[4,5-c]pyridin-2-one (JNJ-53718678), a Potent and Orally Bioavailable Fusion Inhibitor of Respiratory Syncytial Virus” (J Med Chem, 2020).

Columns and labels:
[1] = Cytotoxicity against human HeLa cells assessed as reduction in cell viability after 3 days by ATPlite assay
[2] = Protein binding in human plasma assessed as unbound fraction; type: ADME, cell-free
in vitro = settings: human, HeLa cells
Description: Selectivity index, ratio of CC50 for human HeLa cells to EC50 GFP-fused RSV 224 fusion protein infected in human HeLa cells

[3] = Metabolic stability in human liver microsomes assessed as compound metabolized after 15 mins; type: ADME, Microsome; settings: read-out: Drug metabolism
Cytochrome P450 3A4 = Cytochrome P450 3A4 (Homo sapiens, UniProt P08684); test: Time-dependent inhibition of CYP3A4 in human liver microsomes using testosterone as substrate; type: ADME
Cytochrome P450 3A4, sequence (P08684 whole entry): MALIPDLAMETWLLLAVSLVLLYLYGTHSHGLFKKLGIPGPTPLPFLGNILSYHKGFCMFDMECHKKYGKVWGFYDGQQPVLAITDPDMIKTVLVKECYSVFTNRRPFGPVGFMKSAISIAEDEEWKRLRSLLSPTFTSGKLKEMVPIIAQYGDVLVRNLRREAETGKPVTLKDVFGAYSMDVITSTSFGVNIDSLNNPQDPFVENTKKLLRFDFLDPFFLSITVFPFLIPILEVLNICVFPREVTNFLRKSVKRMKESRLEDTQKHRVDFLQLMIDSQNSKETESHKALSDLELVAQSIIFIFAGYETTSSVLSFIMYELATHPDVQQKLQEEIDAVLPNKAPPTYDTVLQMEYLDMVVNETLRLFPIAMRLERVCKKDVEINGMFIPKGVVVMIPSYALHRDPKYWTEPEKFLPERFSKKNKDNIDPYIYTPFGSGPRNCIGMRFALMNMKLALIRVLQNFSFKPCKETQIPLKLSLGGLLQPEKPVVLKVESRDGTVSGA

Row | Compound | CC50 at 72 h [1] | fraction unbound [2] | selectivity ratio (in vitro) | metabolised at 0.25 h [3] | TDI (Cytochrome P450 3A4)
1 | O=c1n(Cc2cc3cc(F)ccc3n2CCCCO)c2cnccc2n1C1CC1 | > 50 µM | – | – | – | –
2 | CC(C)CCn1c(Cn2c(=O)n(C3CC3)c3ccncc32)cc2ccccc21 | > 100 µM | 0.006 | 181 | – | –
3 | CS(=O)(=O)CCCn1c(Cn2c(=O)[nH]c3ccncc32)cc2cc(Cl)ccc21 | > 50 µM | – | – | 9% | Not Active
4 | O=c1n(Cc2nc3ncccc3n2CCCCO)c2cnccc2n1C1CC1 | > 100 µM | – | > 10000 | – | –
5 | CS(=O)(=O)CCCn1c(Cn2c(=O)n(CC3CC3)c3ccncc32)cc2cc(Cl)ccc21 | > 50 µM | – | – | 98% | Not Active
6 | COc1ccc(-n2c(=O)n(Cc3cc4cc(Cl)ccc4n3CCCC#N)c3cnccc32)c(F)c1 | > 50 µM | – | – | 17% | –
7 | CS(=O)(=O)CCCn1c(Cn2c(=O)n(C3CC3)c3ccncc32)cc2cc(C(F)(F)F)ccc21 | > 50 µM | – | – | – | –
8 | O=c1n(Cc2nc3nc(Cl)ccc3n2CCCCF)c2cnccc2n1C1CC1 | > 50 µM | – | – | 0% | –
9 | CC(C)(O)CCCn1c(Cn2c(=O)n(C3CC3)c3ccncc32)cc2cc(Cl)ccc21 | > 50 µM | – | – | 56% | –
10 | CS(=O)(=O)CCCn1c(Cn2c(=O)n(C3CNC3)c3ccncc32)cc2cc(Cl)ccc21 | > 50 µM | – | – | 14% | –
11 | O=c1n(Cc2cc3cnccc3n2CCCCO)c2cnccc2n1C1CC1 | > 100 µM | – | > 57000 | – | –
12 | CS(=O)(=O)CCCn1c(Cn2c(=O)n(C3CC3)c3ccncc32)cc2ccccc21 | > 100 µM | – | > 10000 | – | –
13 | O=c1n(Cc2cc3ccncc3n2CCCCO)c2cnccc2n1C1CC1 | > 100 µM | – | > 76 | – | –
14 | CS(=O)(=O)CCCn1c(Cn2c(=O)n(C3CN(S(C)(=O)=O)C3)c3ccncc32)cc2cc(Cl)ccc21 | > 50 µM | – | – | 15% | –
15 | N#CCCCn1c(Cn2c(=O)n(-c3ccncc3F)c3ccncc32)cc2cc(Cl)ccc21 | > 50 µM | – | – | 27% | –
16 | CC(C)CCn1c(Cn2c(=O)n(C3CC3)c3ccncc32)cc2cccnc21 | > 100 µM | – | – | – | –
17 | O=c1n(Cc2cc3cc(Cl)ccc3n2CCCCF)c2cnccc2n1C1CC1 | > 50 µM | – | – | 37% | –
18 | N#CCCCn1c(Cn2c(=O)n(-c3ccncc3)c3ccncc32)cc2cc(Cl)ccc21 | > 50 µM | – | – | 23% | –
19 | CS(=O)(=O)CCCn1c(Cn2c(=O)n(C3CC3)c3ccncc32)cc2cnccc21 | > 50 µM | – | – | 32% | –
20 | N#CCCCn1c(Cn2c(=O)n(-c3ncccn3)c3ccncc32)cc2cc(Cl)ccc21 | > 50 µM | – | – | 34% | –

Row | Compound | CC50 at 72 h [1] | fraction unbound [2] | selectivity ratio (in vitro) | metabolised at 0.25 h [3] | TDI (Cytochrome P450 3A4)
21 | CS(=O)(=O)CCCn1c(Cn2c(=O)n(CC#N)c3ccncc32)cc2cc(Cl)ccc21 | > 50 µM | – | – | 66% | –
22 | Cc1ccc(-n2c(=O)n(Cc3cc4cc(Cl)ccc4n3CCCC#N)c3cnccc32)cc1 | > 50 µM | – | – | 36% | –
23 | CC(C)(O)CCCn1c(Cn2c(=O)n(C3CC3)c3ccncc32)nc2nc(Cl)ccc21 | > 50 µM | – | – | 41% | –
24 | O=c1n(Cc2cc3cc(Cl)ccc3n2CCCC(F)(F)F)c2cnccc2n1C1CC1 | > 50 µM | – | – | 23% | –
25 | CC(C)CCn1c(Cn2c(=O)n(C3CC3)c3ccncc32)nc2ncccc21 | > 100 µM | – | > 12000 | – | –
26 | N#CCCCn1c(Cn2c(=O)n(-c3ccc(C(=O)NC4CC4)cc3)c3ccncc32)cc2cc(Cl)ccc21 | > 50 µM | – | – | 24% | –
27 | O=C(O)CCCn1c(Cn2c(=O)n(C3CC3)c3ccncc32)cc2cc(Cl)ccc21 | > 50 µM | – | – | – | –
28 | COc1ccc2c(c1)cc(Cn1c(=O)n(C3CC3)c3ccncc31)n2CCCCO | > 50 µM | – | – | – | –
29 | CS(=O)(=O)CCCn1c(Cn2c(=O)n(C3CC3)c3ccncc32)nc2nc(Cl)ccc21 | > 50 µM | – | – | 0% | –
30 | CS(=O)(=O)CCCn1c(Cn2c(=O)n(C3CC3)c3ccncc32)cc2cc(F)ccc21 | > 50 µM | – | – | – | –
31 | N=C(CCCn1c(Cn2c(=O)n(C3CC3)c3ccncc32)cc2cc(Cl)ccc21)NO | > 50 µM | – | – | 37% | –
32 | CC(C)CCn1c(Cn2c(=O)n(C3CC3)c3ccncc32)nc2cnccc21 | > 100 µM | – | > 3000 | – | –
33 | O=c1n(Cc2cc3cc(Cl)ccc3n2CCCN2CCOCC2)c2cnccc2n1C1CC1 | > 50 µM | – | – | 99% | –
34 | N#CCCCn1c(Cn2c(=O)n(-c3ccc(OC(F)(F)F)cc3)c3ccncc32)cc2cc(Cl)ccc21 | > 50 µM | – | – | 0% | –
35 | N#CCCCn1c(Cn2c(=O)n(-c3ccc(C(=O)O)cc3)c3ccncc32)cc2cc(Cl)ccc21 | > 50 µM | – | – | 9% | –
36 | CC(C)CCn1c(Cn2c(=O)n(C3CC3)c3ccncc32)nc2cccnc21 | > 100 µM | – | > 80 | – | –
37 | CC(C)CCn1c(Cn2c(=O)n(C3CC3)c3ccncc32)cc2cnccc21 | > 50 µM | – | – | 44% | –
38 | N#CCCCn1c(Cn2c(=O)n(C3CC3)c3ccncc32)nc2nc(Cl)ccc21 | > 50 µM | – | – | 0% | –
39 | N#CCCCn1c(Cn2c(=O)n(-c3ccncn3)c3ccncc32)cc2cc(Cl)ccc21 | > 50 µM | – | – | 60% | –
40 | NC(=O)CCCn1c(Cn2c(=O)n(C3CC3)c3ccncc32)cc2cc(Cl)ccc21 | > 50 µM | – | – | – | –

Row | Compound | CC50 at 72 h [1] | fraction unbound [2] | selectivity ratio (in vitro) | metabolised at 0.25 h [3] | TDI (Cytochrome P450 3A4)
41 | O=c1n(Cc2cc3cc(Br)ccc3n2CCCCO)c2cnccc2n1C1CC1 | > 50 µM | – | – | – | –
42 | COc1ccc(-n2c(=O)n(Cc3cc4cc(Cl)ccc4n3CCCC#N)c3cnccc32)c(C)c1 | > 50 µM | – | – | 36% | –
43 | CC(C)(C)n1c(=O)n(Cc2cc3cc(Cl)ccc3n2CCCS(C)(=O)=O)c2cnccc21 | > 50 µM | – | – | 28% | –
44 | O=c1n(Cc2cc3ncccc3n2CCCCO)c2cnccc2n1C1CC1 | > 100 µM | – | > 613 | – | –
45 | CC1(n2c(=O)n(Cc3cc4cc(Cl)ccc4n3CCCS(C)(=O)=O)c3cnccc32)CC1 | > 50 µM | – | – | 29% | Not Active
46 | CS(=O)(=O)CCCn1c(Cn2c(=O)n(C3CC3)c3ccncc32)cc2cc(Br)ccc21 | > 50 µM | – | – | – | –
47 | CS(=O)(=O)CCCn1c(Cn2c(=O)n(C3COC3)c3ccncc32)cc2cc(Cl)ccc21 | > 50 µM | – | – | 52% | –
48 | CC(C)n1c(=O)n(Cc2cc3cc(Cl)ccc3n2CCCS(C)(=O)=O)c2cnccc21 | > 50 µM | – | – | 97% | Not Active
49 | O=c1n(Cc2cc3cnccc3n2CCCCF)c2cnccc2n1C1CC1 | > 50 µM | – | – | 15% | –
50 | Cn1ccc(-n2c(=O)n(Cc3cc4cc(Cl)ccc4n3CCCC#N)c3cnccc32)n1 | > 50 µM | – | – | 49% | –
51 | COc1ccc(-n2c(=O)n(Cc3cc4cc(Cl)ccc4n3CCCC#N)c3cnccc32)cc1C | > 50 µM | – | – | 33% | –
52 | CC(C)CCn1c(Cn2c(=O)n(C3CC3)c3ccncc32)nc2ccncc21 | > 100 µM | – | > 987 | – | –
53 | O=c1n(Cc2nc3nc(Cl)ccc3n2CCCCO)c2cnccc2n1C1CC1 | > 50 µM | – | – | 0% | –
54 | O=c1n(Cc2nc3cnccc3n2CCCCO)c2cnccc2n1C1CC1 | > 100 µM | – | > 18000 | – | –
55 | N#CCCCn1c(Cn2c(=O)n(-c3ncco3)c3ccncc32)cc2cc(Cl)ccc21 | > 50 µM | – | – | 45% | –
56 | O=c1n(Cc2cc3cc(Cl)ccc3n2CCCCO)c2cnccc2n1C1CC1 | > 50 µM | – | – | 49% | –
57 | CC(C)CCn1c(Cn2c(=O)n(C3CC3)c3ccncc32)nc2nc(Cl)ccc21 | > 50 µM | – | – | 7% | –
58 | CC(n1c(=O)n(Cc2cc3cc(Cl)ccc3n2CCCS(C)(=O)=O)c2cnccc21)C(F)(F)F (stereo not drawn) | > 50 µM | – | – | 2% | –
59 | O=c1n(Cc2cc3ccc(Cl)cc3n2CCCCO)c2cnccc2n1C1CC1 | > 50 µM | – | – | – | –
